Data from patent US12180187B2, “1-phenyl-5-azinylpyrazolyl-3-oxyalkyl acids and their use for controlling unwanted plant growth” (BAYER AKTIENGESELLSCHAFT, priority 2019, dated 2024).

What was measured:
VIOTR = assay: Post-emergence action at 320 g/ha against VIOTR; format: in vivo, Viola tricolor; conditions: visual rating about 3 weeks after treatment vs untreated controls
In short: (§1)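 Weeds were sown in sandy loam, grown in a greenhouse and sprayed at the one-leaf stage, 2 to 3 weeks after sowing, with WP or EC formulations as aqueous suspension or emulsion plus 0.5% additive at 600 l/ha water. Activity was rated visually after about 3 weeks against untreated controls (100% = plants dead, 0% = like control).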

VERPE = assay: Pre-emergence action against VERPE, 1280 g/ha; format: in vivo, Veronica persica; conditions: scored visually after about 3 weeks vs untreated controls (100% = plants have died)
In short: (§2)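 Visual percent-effect ratings (0% = like control, 100% = plants dead) were taken about 3 weeks after pre-emergence soil-surface application of WP/EC aqueous formulations with 0.5% additive, 600 L water/ha. Seeds were sown in sandy loam and grown in the greenhouse.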

STEME [1] = assay: Post-emergence action against STEME, 1.28 kg/ha; format: in vivo, Stellaria media; conditions: dosage 1280 g/ha, visual rating about 3 weeks after treatment vs untreated controls (100% = plants died)
In short: (§3)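 Herbicidal action is estimated by eye after about three weeks under optimum greenhouse conditions, on a 0–100% scale against untreated plants. Compounds are applied post-emergence to one-leaf-stage weeds as aqueous WP or EC preparations containing 0.5% additive, sprayed at 600 L/ha.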

ALOMY = assay: Pre-emergence action against ALOMY, 1280 g/ha; format: in vivo, Alopecurus myosuroides; conditions: visual scoring after about 3 weeks vs untreated controls, 100% = plants have died, 0% = like control plants
In short: as §2

AVEFA = assay: Post-emergence action at 320 g/ha against AVEFA; format: in vivo; conditions: visual rating about 3 weeks after treatment vs untreated controls
In short: as §1

SETVI = assay: Post-emergence action against SETVI, 1.28 kg/ha; format: in vivo, Setaria viridis; conditions: dosage 1280 g/ha, visual rating about 3 weeks after treatment vs untreated controls
In short: as §3

PHBPU [2] = assay: Pre-emergence action at 320 g/ha against PHBPU; format: in vivo; conditions: visual scoring after about 3 weeks vs untreated controls
In short: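 Pre-emergence soil-surface spray: WP or EC formulation, aqueous, 0.5% additive, 600 l/ha water volume. Greenhouse growth about 3 weeks; visual percent effect relative to untreated pots.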

DIGSA [3] = assay: Pre-emergence action against DIGSA, 1280 g/ha; format: in vivo, Digitaria sanguinalis; conditions: visual scoring after about 3 weeks vs untreated controls, 100% = plants have died, 0% = like control plants
In short: as §2

LOLRI = assay: Pre-emergence action against LOLRI, 1280 g/ha; format: in vivo, Lolium rigidum; conditions: visual scoring after about 3 weeks vs untreated controls, 100% = plants have died, 0% = like control plants
In short: as §2

AMARE = assay: Post-emergence action against AMARE, 1.28 kg/ha; format: in vivo, Amaranthus retroflexus; conditions: dosage 1280 g/ha, visual rating about 3 weeks after treatment vs untreated controls (100% = plants died)
In short: as §3

ECHCG = assay: Post-emergence action at 320 g/ha against ECHCG; format: in vivo, Echinochloa crus-galli; conditions: dosage 320 g/ha, visual rating about 3 weeks after treatment vs untreated controls (100% = plants died)
In short: as §1

DIGSA [4] = assay: Post-emergence action at 320 g/ha against DIGSA; format: in vivo, Digitaria sanguinalis; conditions: dosage 320 g/ha, visual rating about 3 weeks after treatment vs untreated controls (100% = plants died)
In short: as §1

PHBPU [5] = assay: Post-emergence action at 320 g/ha against PHBPU; format: in vivo; conditions: visual rating about 3 weeks after treatment vs untreated controls
In short: as §1

ABUTH = assay: Post-emergence action at 320 g/ha against ABUTH; format: in vivo, Abutilon theophrasti; conditions: visual rating about 3 weeks after treatment vs untreated controls
In short: as §1

KCHSC = assay: Post-emergence action against KCHSC, 1.28 kg/ha; format: in vivo, Bassia scoparia; conditions: dosage 1280 g/ha, visual rating about 3 weeks after treatment vs untreated controls (100% = plants died)
In short: as §3

STEME [6] = assay: Pre-emergence action at 320 g/ha against STEME; format: in vivo, Stellaria media; conditions: greenhouse, scored visually after about 3 weeks vs untreated controls, 100% = plants have died, 0% = like control plants
Excerpt: b) Seeds of monocotyledonous and dicotyledonous weed plants and crop plants are placed in plastic or organic planting pots and covered with soil. The compounds of the invention, formulated in the form of wettable powders (WP) or as emulsion concentrates (EC), are then applied onto the surface of the covering soil as aqueous suspension or emulsion with addition of 0.5% additive at a water application rate of 600 l/ha (converted). After the treatment, the pots are placed in a greenhouse and kept under good growth conditions for the trial plants. After about 3 weeks, the effect of the preparations is scored visually in comparison with untreated controls as percentages. For example, 100% activity=the plants have died, 0% activity=like control plants. Tables 13 to 26 below show the effects of selected compounds of the general formula (I) on various harmful plants and at an application rate corresponding to 320 g/ha, which were obtained by the experimental procedure mentioned above.

Row | SMILES | Post-emergence action against VIOTR in % (VIOTR) [%] | Pre-emergence action against VERPE (VERPE) [%] | Post-emergence action against STEME (STEME [1]) [%] | Pre-emergence action against ALOMY (ALOMY) [%] | Post-emergence action against AVEFA in % (AVEFA) [%] | Post-emergence action against SETVI (SETVI) [%] | Pre-emergence action against PHBPU in % (PHBPU [2]) [%] | Pre-emergence action against DIGSA (DIGSA [3]) [%] | Pre-emergence action against LOLRI (LOLRI) [%] | Post-emergence action against AMARE (AMARE) [%] | Post-emergence action at 320 g/ha against ECHCG in % (ECHCG) [%] | Post-emergence action at 320 g/ha against DIGSA in % (DIGSA [4]) [%] | Post-emergence action against PHBPU in % (PHBPU [5]) [%] | Post-emergence action against ABUTH in % (ABUTH) [%] | other results
1 | COC(=O)CNC(=O)COc1nn(-c2ccccc2F)c(-c2ccc(F)nc2)c1Br [Example X-002] | 90 | 100 | 90 | 100 | 100 | 100 | 80 | 100 | 100 | 90 | 100 | 100 | 90 | 90 | –
2 | C[C@@H](Oc1nn(-c2ccccc2F)c(-c2cncnc2)c1Br)C(=O)O [VI-012] | 100 | 100 | 90 | 90 | 90 | 90 | 90 | 90 | 100 | 90 | – | – | 80 | 80 | Post-emergence action against KCHSC (KCHSC): 90%
3 | COC(=O)[C@@H](C)Oc1nn(-c2ccccc2)c(-c2cccnc2)c1Br [VII-008] | 90 | 100 | 100 | 100 | 90 | 90 | 80 | 100 | 100 | 90 | 90 | 80 | 80 | 90 | Post-emergence action against KCHSC (KCHSC): 90%
4 | CCOC(=O)COc1nn(-c2ccccc2F)c(-c2ccc(F)nc2)c1C(F)(F)F [VII-010] | 80 | 100 | 100 | 100 | 100 | 90 | 90 | 100 | 100 | – | 90 | 90 | 90 | 80 | –
5 | CCOC(=O)COc1nn(-c2ccccc2F)c(-c2cncc(F)c2)c1Br [VII-015] | 90 | 100 | 100 | 90 | 90 | 90 | 90 | 90 | 100 | 90 | 90 | 100 | 90 | 90 | –
6 | O=C(O)COc1nn(-c2ccccc2F)c(-c2cncc(F)c2)c1Br [VII-025] | 90 | 100 | 100 | 100 | 90 | 90 | 90 | 100 | 100 | 90 | 90 | 100 | 90 | 90 | –
7 | COC(=O)COc1nn(-c2ccccc2F)c(-c2ccc(F)nc2)c1C(F)(F)F [VII-031] | 90 | 100 | 100 | 100 | 90 | 90 | 80 | 100 | 100 | 90 | 90 | 100 | 90 | 90 | –
8 | COC(=O)COc1nn(-c2ccccc2F)c(-c2cncc(F)c2)c1Br [VII-035] | 90 | 100 | 100 | 100 | 90 | 90 | 90 | 90 | 100 | 90 | 90 | 100 | 100 | 90 | –
9 | CCOC(=O)COc1nn(-c2ccccc2F)c(-c2ccnc(F)c2)c1Br [VIII-003, Ethyl {[4-bromo-1-(2-fluorophenyl)-5-(2-fluoropyridin-4-yl)-1H-pyrazol-3-yl]oxy}acetate] | – | – | 100 | – | – | 100 | – | – | – | 90 | 80 | – | 80 | – | pest or weed control at 320 g/ha (VIOTR; Viola tricolor, 504 h): 80%; pest or weed control at 1280 g/ha (VERPE; Veronica persica, 504 h): 90%; Pre-emergence action at 320 g/ha against STEME in % (STEME [6]): 80%; pest or weed control at 320 g/ha (AVEFA; Avena fatua, 504 h): 90%; pest or weed control at 1280 g/ha (LOLRI; Lolium rigidum, 504 h): 90%; pest or weed control at 320 g/ha (DIGSA [4]; Digitaria sanguinalis, 504 h): 80%
